Consider one compound from paper PMC10747913, “Preparation of ^18F-Labeled Tracers Targeting Fibroblast Activation Protein via Sulfur [^18F]Fluoride Exchange Reaction” (Pharmaceutics, 2023).

The nature of series [1]: LogD7.4 determination by n-octanol/PBS partitioning. The format is physicochemical. The conditions noted are these: n-octanol/phosphate-buffered saline; partitioning between PBS pH 7.4 and octanol. The procedure:
The LogD7.4 determination of [^18F]12 was determined in a similar manner as previously described and proceeded as follows. [^18F]12 (1 μL, ca. 0.5 MBq) was pipetted into an Eppendorf tube containing 600 μL of n-octanol (presaturated with phosphate-buffered saline) and 600 μL of phosphate-buffered saline buffer (0.02 M, pH = 7.4). The tube was vortexed for 15 min at room temperature, and the two phases were separated by centrifugation at 5000 rpm for 3 min. An aliquot (400 µL) from the n-octanol layer was pipetted in a vial containing phosphate-buffered saline (400 µL), the sample mixture was vortexed for 15 min at room temperature and the two phases were separated by centrifugation at 5000 rpm for 3 min. Aliquots (250 µL) from each phase were taken and measured with an automatic γ-counter after subtracting the background activity. The transfer of the aqueous phase requires particular care, as described by Linclau et al.. The partition coefficient was calculated for the acquired samples using Equation (1). (1) logD7.4=log counts per minute (octanol)/counts per minute (phosphate buffer)

A short description of series [2]: Serum stability assay at 37 °C (radio-UHPLC). Format: in vitro ADME, human. The procedure: Either [^18F]12 or [^18F]13 (20–40 MBq) in 40 µL EtOH aliquots was incubated with 360 µL human serum (Sigma Aldrich, Darmstadt, Germany) at 37 °C. After specific time intervals (5–120 min), 40 µL samples were taken from the serum incubation mixture, added to 80 µL “Supersol” solubilizing agent (see Supplementary Materials Table S6) and cooled over ice for 2 min. Thereafter, the cooled mixture was centrifuged at 4 °C (15,000 rpm) for 3 min and 80 µL of the supernatant solution was monitored with radio-UHPLC. A gradient of 5% to 45% acetonitrile in 7.5 min was used for enhanced separation.
(§1) The radiochemical purity and identity of [^18F]12 and [^18F]13 was analyzed with radio-HPLC. […] Prior to a biological evaluation, preliminary stability studies of [^18F]12 and [^18F]13 were performed in human serum at 37 °C (Figure 3A,B). The stability studies were performed by taking an aliquot of the radiolabeled product solution and incubating the product mixture in the desired solvent or human serum at 37 °C for the given time points. In both cases, decomposition of [^18F]12 and [^18F]13 was evident from the first peak in the radioactive channel (tR: 0.6–1.0), most likely due to the release of [^18F]fluoride, which could be detected using UHPLC analysis from the first time point of 15 min and continued until 120 min. After 60 min, approximately 20% of [^18F]12 and 19% of [^18F]13 had been degraded; following a 120 min incubation, approximately 38% of both [^18F]12 and [^18F]13 had been degraded.

The nature of series [3]: Stability in PBS (pH 7.4). The format is physicochemical. The conditions noted are these: PBS pH 7.4, 120 min. The procedure:
as §1

The next series is described as follows: Stability in EtOH. Format: physicochemical. The conditions noted are these: 120 min. How it is done: In addition, we performed a series of stability studies of compounds [^18F]12 and [^18F]13 in EtOH, phosphate-buffered saline (PBS, pH 7.4) and human serum (37 °C) to provide an indication of the rates of in vivo defluorination. […] These findings correlate with the unwanted accumulation of activity in the bones and joints obtained during PET imaging experiments in a healthy mice (Figure 5A,B).

How the values of series [4] were obtained:
Microsome experiments with [^18F]12 in the presence of NADPH were performed according to the procedure recently described by us with slight modifications. […] The radiotracer dissolved in EtOH (4 µL; 5 MBq/µL) was diluted with PBS (496 µL, 0.8% EtOH). This radiotracer solution (100 µL, 0.32% EtOH and 16 MBq/mL or 1.6 µM final) was mixed with PBS (112.5 µL) and human liver microsomes (12.5 µL of 20 mg/mL stock; 1 mg/mL final; Gibco™ Cat. No. HMMCPL, Lot. No. PL050E-B) in a 1.5 mL Eppendorf tube and the mixture was warmed for 5 min at 37 °C. Subsequently, NADPH (25 µL of freshly prepared 20 mM solution in PBS, 2 mM final) was added and the mixture was incubated at 37 °C. As a control incubation, NADPH was omitted and replaced by PBS. After distinct time points (10, 20, 30 and 60 min), an aliquot (40 µL) was withdrawn and added to ice-cooled CH3CN (160 µL). The mixture was vortexed for 30 s, stored on ice for 4 min and centrifuged (5 min at 15,000 rpm). The resulting supernatant was used for radio-HPLC analysis using the Shimadzu system described in Section 2.2 with the following conditions. A C18 column Kinetex® from Phenomenex (5 µm, 100 Å, LC Column 250 × 4.6 mm) served as stationary phase. The eluent consisted of (A) 0.1% trifluoroacetic acid in H2O and (B) MeCN; flow rate 1 mL/min; elution profile A/B: t0 min 70/30–t10.0 min 70/30–t11.0 min 5/95–t16.0 min 5/95–t17.0 min 70/30–t22.0 min 70/30.
Testosterone (40 µM final) was used as a positive control for the activity of the HLM and was separately incubated under the conditions described above (0% EtOH final).

The nature of series [5]: Liver cytosol assay (HLC). The format is in vitro ADME, human. The conditions noted are these: for stability toward HLC: 2 mg/mL HLC, up to 60 min, 37 °C. How it is done:
(§2) Liver cytosol experiments with [^18F]12 were performed according to reported procedures.
(§3) Vanilin (40 µM final) was used as positive control for the activity of the liver cytosols and was separately incubated under the conditions described above (1% EtOH final). […] More than 80% of the vanilin had been degraded after 60 min in the presence of HLC, while around 60% of the vanilin had been degraded with RLC. There was no change in the degradation rate with and without 1% EtOH in the incubation mixture.

Series [6] is described as follows: Liver cytosol assay (RLC). Format: in vitro ADME, rat. The conditions noted are these: 2 mg/mL RLC, up to 60 min, 37 °C. How it is done: as §2, §3
A short description of series [7]: Small-animal PET distribution in healthy mice. Format: in vivo, BALB/cJRj mice. The procedure: All animal experiments were carried out according to the guidelines of the German Regulation for Animal Welfare. The protocol was approved by the local Ethical Committee for Animal Experiments. Small-animal PET was performed using the nanoScan® PET/CT (Mediso Medical Imaging Systems, Budapest, Hungary). Each animal (BALB/cJRj mice, n = 2) received an intravenous injection of 10 MBq [^18F]12 delivered in 0.15 mL of 0.154 mol/L NaClaq through a tail vein catheter. Emission of annihilation photons was recorded continuously for 2 h. A corresponding X-ray CT image was recorded and used for anatomical referencing and attenuation correction. List-mode data were sorted into sinograms with 36 frames (15 × 10 s, 5 × 30 s, 5 × 60 s, 4 × 300 s, 3 × 600 s, 4 × 900 s) and reconstructed using the Tera-Tomo™ 3D algorithm, applying corrections for decay, scatter and attenuation. […] Three-dimensional regions of interest (ROI) were created, applying fixed contrast thresholds for delineation of blood (heart content, 80%), liver (80%), kidneys (50%), bone (knee and shoulder joints, 50%), gall bladder and intestine (5%) and urinary bladder (10%). Organ-specific activity concentrations were determined as ROI-averaged standardized uptake values at mid-frame time (SUVmean). Time–activity curves were drawn using Prism 9.0 (GraphPad Software, La Jolla, CA, USA) and the activity retention within each organ was reported as the area under the curve (AUC). Excreted activity fractions were determined as the percent of the initially administered activity dose (%ID).

“Also recorded” adds a separate entry of the source.

A word on the logD: it is the decadic logarithm of the distribution of all forms, ionised or not, between an organic phase and buffer at a given pH. Higher therefore signals a more lipophilic compound.

Take `N#C[C@@H]1CC(F)(F)CN1C(=O)CNC(=O)c1ccnc2ccc(OCCCN3CCN(C(=O)c4ccc(OS(=O)(=O)[18F])cc4)CC3)cc12` [[^18F]12]: the log distribution coefficient (logD) in series [1] came out at 1.81. Besides, the entries for the “fraction degraded in human serum” value in series [2] (120 min incubation) and in series [2] (after 60 min) were “approximately 38%” and “approximately 20%”, respectively. Besides, in series [2] (after only 15 min), the “stability in human serum” value was “clear signs of instability”. Besides, the “stability in PBS” value in series [3] is recorded as “stable”. In the series “Stability in EtOH”, the “stability in EtOH” value was “stable”. Besides, the “half-time toward HLM” value in series [4] (1 mg/mL HLM, 2 mM NADPH, 1.6 µM tracer, 37 °C, one-phase decay) was 4.4 min. The “stability in presence of HLM without NADPH (control)” value in series [4] (NADPH omitted, 60 min) is “apparently stable”. Besides, the “stability toward HLC” value in series [5] is “largely stable; also recorded: mostly stable”; in series [5] (listed as [18F]12) it was “No degradation”. Further, the “substrate of aldehyde oxidase (AO)” value in series [5] (liver cytosols as source of AO) is “not to be a substrate of AO”. In addition, the “stability toward RLC” value in series [6] is recorded as “largely stable; also recorded: mostly stable”; in series [6] (listed as [18F]12), “No degradation”. Further, the “time of maximum activity concentration in kidney” value in series [7] (i.v., after injection) turned out to be 2 min. Moreover, the “time of maximum activity concentration in liver” value in series [7] (i.v., after injection) came to 2 min. Besides, in series [7] (i.v., within 2 h), the “activity concentration in bones” value is reported as “continuously increasing”. For the same compound, the “fraction of initially delivered activity dose excreted via hepatobiliary pathway” value in series [7] (retention in gall bladder and intestine, 2 h) was 45%. For the same compound, the “fraction of initially delivered activity dose excreted via renal pathway” value in series [7] (retention in urinary bladder, 2 h) turned out to be 10%.
